Measured values reported in US9908826B2, “Synthetic method” (University Court of the University of St. Andrews, priority 2014, dated 2018).
Each block holds one compound with its values, some of them ahead of it.

Columns and labels:
[1] = target: T1, human oestrogen receptor (Homo sapiens, UniProt P03372); assay: recombinant yeast oestrogen screen (YES) assay; format: cell-based
T1 construct: expressed in transfected cells; host or cells: recombinant yeast (hER yeast strain developed by Glaxo Welcome)
T1 sequence (P03372 1-595): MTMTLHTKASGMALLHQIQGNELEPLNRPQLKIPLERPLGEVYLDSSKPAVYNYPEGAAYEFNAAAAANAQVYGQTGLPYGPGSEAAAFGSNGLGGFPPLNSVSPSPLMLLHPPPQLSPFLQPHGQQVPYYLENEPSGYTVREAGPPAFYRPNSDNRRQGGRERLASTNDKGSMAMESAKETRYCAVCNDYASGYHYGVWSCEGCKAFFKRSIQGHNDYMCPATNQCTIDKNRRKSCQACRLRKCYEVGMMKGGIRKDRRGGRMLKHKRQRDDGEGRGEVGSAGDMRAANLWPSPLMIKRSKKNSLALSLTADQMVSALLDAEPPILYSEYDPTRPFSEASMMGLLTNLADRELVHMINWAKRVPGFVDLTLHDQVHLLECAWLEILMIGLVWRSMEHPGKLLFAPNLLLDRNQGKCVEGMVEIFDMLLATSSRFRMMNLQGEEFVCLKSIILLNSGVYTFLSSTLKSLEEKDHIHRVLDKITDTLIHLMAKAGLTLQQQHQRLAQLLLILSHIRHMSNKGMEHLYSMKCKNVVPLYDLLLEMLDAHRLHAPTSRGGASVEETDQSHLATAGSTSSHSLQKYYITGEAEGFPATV
Source text: In order to test our hypothesis that 3-nonylphenol might show less oestrogenicity than either the linear or the 4-nonylphenol, we have carried out a yeast oestrogen screen (YES) assay which is specific for oestradiol mimics.
The recombinant hER yeast strain was developed by Glaxo Welcome and details of the yeast oestrogen screen have been described previously (Routledge and Sumpter, 1996).
In brief, yeast cells were transfected with the human oestrogen receptor gene together with expression plasmids; the oestrogen response element and the lac-Z gene encoding the enzyme β-galactosidase. The yeast cells were incubated in medium containing the test chemical and the chromogenic substrate, […] (CPRG), and active ligands induced β-gal expression. The β-galactosidase secreted into the medium causes the yellow CPGR to change into a red product, and this is measurable by absorbance.
The medium components were prepared and the standard assay procedure was followed.^32 Chemicals were serially diluted in ethanol and 10 μl volumes were transferred to 96-well flat-bottom plates where the ethanol was allowed to evaporate to dryness. Then, 200 μl medium containing CPRG and yeast (final cell number of 5×10^5 cells/ml) was added to each well. Included with every assay was a negative control, ethanol, and a positive control, 17 β-oestradiol (stock solution of 17 β-oestradiol (2×10^−7 mol dm^−3) serially diluted in ethanol to achieve final concentrations of 1×10^−8 mol dm^−3 to 4.88×10^−12 mol dm^−3 in the wells).
The absorbance values were corrected for cell density using the following equation: Corrected value=chemical540nm−(chemical620nm−ethanol blank620nm).
All chemicals were tested in duplicate and each YES was carried out at least three times.

[2] = tested on: male Japanese Medaka fish; details: post-hatching stages of development, references 12, 13, 28; cited from earlier work
[3] = target: T1, human oestrogen receptor; details: studied before, reference 13; cited from earlier work
[4] = YES assay, initial 3-NP sample (Pd/C, contains small amounts of ring hydrogenated product)
[5] = second sample, [RhCl(PPh3)3] hydrogenation, no ring hydrogenation products

oestrogenicity relative to 17 β-oestradiol (times as oestrogenic) ([1]; YES assay (conclusion)): ~10^−6 times
oestrogenic response in the YES assay (in words) ([1]; YES assay, FIG. 1 and FIG. 2): full dose response curve
times less potent in oestrogenicity than the banned substance (4-nonylphenol) ([1]; YES assay, 3-nonylphenol prepared by ethenolysis of cardanol (conclusion)): at least 150 times
potency, fold less than 4-NP (mixed isomers) [1, 4]: ~300 fold
potency, fold less than 17 β-oestradiol [1, 4]: approximately 1.5×10^6 fold
reduction in oestrogenic activity on moving the linear alkyl group from the 4- to the 3-position (vs 4-n-NP) ([1]; YES assay, tested 1×10^−3 to 5×10^−7 mol dm^−3, initial sample (Pd/C hydrogenation)): 10 fold
orders of magnitude less oestrogenic than 4-nonylphenol ([1]; oestrogenicity studies, summary statement): 2 orders of magnitude
increase in oestrogenicity of second sample versus initial sample [1, 5]: 2 fold
oestrogenicity, times lower than that of 4-NP mixed isomers [1, 5]: 150 times
Compound: CCCCCCCCCc1cccc(O)c1 [3-NP, 3-Nonylphenol]

Compound: CCCCCCCCCc1ccc(O)cc1 [4-NP, 4-nonylphenol]
endocrine disrupting effect [2]: induce testes-ova

Compound: CCCCCCCCCc1ccc(O)cc1 [4-n-NP, 4-nonylphenol]
oestrogenicity compared with commercial 4-nonylphenol with mixed alkyl chains [3]: lower oestrogenicity
